Our source for the MIC values is patent publication EP1054888B1 (priority 1998, dated 1999).

Each structure is given as a SMILES string. In brackets after ≈: the same amount, converted by molar mass.

What all share (assay): microbe, parasite or virus in culture
Holding throughout (format): cell-based

In assay [1] the test system is Monilina fructigena. Conditions: read-out: MIC (Minimum Inhibitory Concentration) MONIFG.
Assay [2] deals with Sclerotinia sclerotiorum. To be noted: read-out: MIC (Minimum Inhibitory Concentration) SCLESC.
For assay [3], the system named is Mycosphaerella ligulicola. To be noted: Stagonosporopsis ligulicola, read-out: MIC (Minimum Inhibitory Concentration) MYCOLG.
Assay [4] deals with Leptosphaeria nodorum. To be noted: Parastagonospora nodorum, read-out: MIC (Minimum Inhibitory Concentration) LEPTNO.
The test system of assay [5] is Botrytis cinerea. To be noted: read-out: MIC (Minimum Inhibitory Concentration) BOTRCI.
Assay [6] has as its system Rhizoctonia solani. To be noted: read-out: MIC (Minimum Inhibitory Concentration) RHIZSO.
Assay [7] concerns Magnaporthe grisea f. sp. oryzae. To be noted: Pyricularia oryzae, read-out: MIC (Minimum Inhibitory Concentration) PYRIOR, Table II; total inhibition of mycelial growth, V8 juice nutrient solution, 6-12 days at 18-25°C, visual inspection.
In assay [8] the test system is Phytophthora infestans. To be noted: read-out: MIC (Minimum Inhibitory Concentration) PHYTIN.
The test system of assay [9] is Alternaria solani. Conditions: read-out: MIC (Minimum Inhibitory Concentration) ALTESO.
Assay [10] has as its system Pyrenophora teres. To be noted: read-out: MIC (Minimum Inhibitory Concentration) PYRNTE.

Consider `Fc1cccc(Cl)c1-c1c(Cl)nc2ncnn2c1C1CCCO1` (centres unmarked) [Example 11], for which the MIC in assay [1] was determined as 3.13 µg/mL (≈ 8.86 µM); in assay [2], 25 µg/mL (≈ 70.8 µM); in assay [3], 12.5 µg/mL (≈ 35.4 µM); in assay [4] it was 1.56 µg/mL (≈ 4.42 µM); in [5], 1.56 µg/mL (≈ 4.42 µM).

With `FC(F)(F)Oc1ccccc1-c1c(Cl)nc2ncnn2c1C1CCCO1` (centres unmarked) [Example 16], the MIC in [1] is over 100 µg/mL; in assay [2], over 100 µg/mL; in [3], over 100 µg/mL; in [4], over 100 µg/mL; in [5], 25 µg/mL (≈ 65 µM).

Consider `CCCCc1c(-c2c(F)cccc2Cl)c(Cl)nc2ncnn12` [Example 17], for which the MIC in assay [1] came out at 3.13 µg/mL (≈ 9.23 µM); in assay [2], 0.78 µg/mL (≈ 2.3 µM); in assay [3] it was 0.78 µg/mL (≈ 2.3 µM); in assay [4], 0.78 µg/mL (≈ 2.3 µM); in assay [5], 0.2 µg/mL (≈ 0.59 µM).

As to `CCCCCc1c(-c2c(F)cccc2Cl)c(Cl)nc2ncnn12` [Example 18], the MIC in [1] was 3.13 µg/mL (≈ 8.86 µM); in [2] it was 0.78 µg/mL (≈ 2.21 µM); in assay [3], 0.78 µg/mL (≈ 2.21 µM); in assay [4] it was 1.56 µg/mL (≈ 4.42 µM); in [5] it was 0.2 µg/mL (≈ 0.566 µM).

Take `COc1nc2ncnn2c(C2CCCCC2)c1-c1c(F)cccc1Cl` [Example 38]: the MIC was over 100 µg/mL in assay [6]; 0.78 µg/mL (≈ 2.16 µM) in assay [7]; over 100 µg/mL in assay [8]; 100 µg/mL (≈ 277 µM) in assay [9]; over 100 µg/mL in [10]; over 100 µg/mL in assay [4]. Moreover, the MIC in [5] was over 100 µg/mL.

In the case of `Fc1cccc(F)c1-c1c(Cl)nc2ncnn2c1C1CCCCC1` [Example 40], the MIC is over 100 µg/mL in assay [6]; 0.39 µg/mL (≈ 1.12 µM) in [7]; over 100 µg/mL in assay [8]; 0.1 µg/mL (≈ 0.287 µM) in assay [9]; 3.13 µg/mL (≈ 8.97 µM) in assay [10]; over 100 µg/mL in [4]. Further, the MIC in assay [5] worked out at 0.39 µg/mL (≈ 1.12 µM).

As for `Fc1ccc(-c2c(-c3c(F)cccc3Cl)c(Cl)nc3ncnn23)cc1` [Example 41], the MIC is 3.13 µg/mL (≈ 8.3 µM) in [6]; 0.1 µg/mL (≈ 0.265 µM) in [7]; over 100 µg/mL in assay [8]; 1.56 µg/mL (≈ 4.14 µM) in assay [9]; 3.13 µg/mL (≈ 8.3 µM) in [10]; over 100 µg/mL in assay [4]. For the same compound, the MIC in assay [5] amounted to 3.13 µg/mL (≈ 8.3 µM).

`Fc1ccccc1-c1c(Cl)nc2ncnn2c1C1CCCCC1` [Example 42]: the MIC is over 100 µg/mL in [6]; 0.39 µg/mL (≈ 1.18 µM) in assay [7]; over 100 µg/mL in [8]; 0.39 µg/mL (≈ 1.18 µM) in assay [9]; 3.13 µg/mL (≈ 9.46 µM) in assay [10]; 0.39 µg/mL (≈ 1.18 µM) in assay [4]. Further, in assay [5], the MIC turned out to be 1.56 µg/mL (≈ 4.72 µM).

Turning to `Clc1ccccc1-c1c(Cl)nc2ncnn2c1C1CCCCC1` [Example 43], the MIC in assay [6] was over 100 µg/mL; in [7], 0.39 µg/mL (≈ 1.12 µM); in assay [8], over 100 µg/mL; in assay [9] it was 1.56 µg/mL (≈ 4.49 µM); in assay [10], over 100 µg/mL; in [4], 1.56 µg/mL (≈ 4.49 µM). Also, the MIC in [5] was over 100 µg/mL.

On to `Fc1cc(F)c(-c2c(Cl)nc3ncnn3c2C2CCCCC2)c(F)c1` [Example 44], for which the MIC in [6] is 0.78 µg/mL (≈ 2.13 µM); in assay [7], under 0.05 µg/mL; in [8] it was over 100 µg/mL; in assay [9] it was under 0.05 µg/mL; in assay [10], 0.2 µg/mL (≈ 0.545 µM); in [4], 0.2 µg/mL (≈ 0.545 µM). For the same compound, the MIC in [5] was under 0.05 µg/mL.

Take `[N-]=[N+]=Nc1nc2ncnn2c(C2CCCCC2)c1-c1c(F)cccc1Cl` [Example 45]: the MIC in assay [6] was over 100 µg/mL; in assay [7], 12.5 µg/mL (≈ 33.6 µM); in assay [8] it was over 100 µg/mL; in assay [9] it was 100 µg/mL (≈ 269 µM); in assay [10], over 100 µg/mL; in assay [4], over 100 µg/mL. The MIC in assay [5] was over 100 µg/mL.

On to `COc1nc2ncnn2c(C2CCCCC2)c1-c1ccccc1F` [Example 50], for which the MIC in [6] is over 100 µg/mL; in assay [7], 25 µg/mL (≈ 76.6 µM); in [8], over 100 µg/mL; in assay [9], over 100 µg/mL; in assay [10] it was over 100 µg/mL; in assay [4], over 100 µg/mL. Further, the MIC in assay [5] was over 100 µg/mL.

For the compound `Fc1c(F)c(F)c(-c2c(Cl)nc3ncnn3c2C2CCCCC2)c(F)c1F` [Example 101, 5-chloro-7-cyclohexyl-6-(pentafluorophenyl)-1,2,4-triazolo[1,5a]pyrimidine], the MIC was over 100 µg/mL in assay [6]; 0.2 µg/mL (≈ 0.497 µM) in assay [7]; over 100 µg/mL in assay [8]; 0.2 µg/mL (≈ 0.497 µM) in [9]; 3.13 µg/mL (≈ 7.77 µM) in assay [10]; 0.2 µg/mL (≈ 0.497 µM) in assay [4]. The MIC in assay [5] was found to be 0.78 µg/mL (≈ 1.94 µM).
